Results on twelve compounds are retold here after patent US20260097049A1, “C[…] AND METHODS OF USE FOR TREATMENT AND PREVENTION OF CANCER” (BlackStone Therapeutics, LLC, priority 2022, published 2026).

One may read the IC50 as the concentration that gives 50% inhibition. A lower IC50 goes with greater potency in that assay. What is called viability is a per cent measure of how many cells are alive, often set against a control.

What all share (assay type): cell-based
The test system of data set [1] is PANC1. The data set is described as follows: IC50 in cell lines (Table 4), PANC1. As to conditions: Homo sapiens, PANC-1. The method, then:
(§1) Various compounds, including (R)-H4CBD and (S)-H4CBD, and H4CBDV racemic mixture, were tested for cell killing against various cancer cell lines, including PANC-1, HPAF-II, AsPC-1, and MIA-PaCa2.
(§2) Table 4 summarizes the measured IC50 for specific compounds in the indicated cell types.

Data set [2] deals with MIA-PaCa2. The data set is described as follows: IC50 in cell lines (Table 4), MIA-PaCa2. The note with it: Homo sapiens, MIA PaCa-2. The method, then:
as §1, §2

Data set [3] relates to human fibroblasts. In words: Cytotoxicity in human fibroblasts. On the procedure: (§3) At 50 μM, 74.8% of human fibroblasts died and 8% of hepatocytes.
Data set [4] is described as follows: Ames test. (The Ames test detects mutagens through reverse mutation in bacteria.)
Data set [5] addresses hERG (Homo sapiens, UniProt Q12809). The data set is described as follows: hERG assay. The method, then:
as §3

The test system of data set [6] is A549 Lung Carcinoma Epithelial Cells (CCL-185 from ATCC). In words: Percent viability of lung carcinoma cells. As to conditions: for cell viability, comparison in words (figure legends): FIGS. 39, 42, 43; for viability at 1.56 µM / viability at 3.12 µM / viability at 6.25 µM / viability at 12.5 µM / viability at 25 µM / viability at 50 µM: Homo sapiens. On the procedure:
GR-X1=H4CBDV, GR-X2=(R)-H4CBD, GR-X3=(S)-H4CBD, GR-X4=HHC.
The IC50 of the hydrogenated cannabivarin, hexahydrocannabidivarin (H4CBDV), (R)-H4CBD, (S)-H4CBD, HHC racemic mixture, and gemcitabine, paclitaxel, and 5-fluorouracil were determined in lung carcinoma cells (A549 Lung Carcinoma Epithelial Cells (CCL-185 from ATCC)) as shown in FIGS. 39-43 and Table 3.

The subject of data set [7] is hepatocytes. The data set is described as follows: Cytotoxicity in hepatocytes. As to conditions: at 50 μM. On the procedure: as §3
In data set [8] the test system is MiaPaCA-2. In words: CellTiterGlo cell viability, MiaPaCA-2 cells. As to conditions: Homo sapiens, MIA PaCa-2, 72 h. On the procedure:
(§4) The IC50 values for (R)-H4CBD, (S)-H4CBD, H4CBDV racemic mixture, and bortezomib were determined. Compound treatment of cells started one day after seeding with a final DMSO concentration of 0.1% and was performed by nanodrop-dispensing using a Tecan Dispenser. 0.1% DMSO (solvent) and Staurosporine (1,0E-05M) served as high control (100% viability) and low control (0% viability), respectively. For the assays, cells were seeded in white cell culture-treated flat and clear bottom multiwell plates and incubated at 37° C. overnight before compounds were added. After incubation for 72 h at 37° C. at 5% or 10% CO2 dependent on the medium, cell plates were equilibrated to room temperature for one hour, CellTiterGlo reagent (Promega) was added and luminescence was measured approximately an hour later using a luminometer.
(§5) Raw data were converted into percent cell viability relative to the high and low control, which were set to 100% and 0%, respectively. IC50 calculation was performed using GraphPad Prism software with a variable slope sigmoidal response fitting model using 0% viability as bottom constraint and 100% viability as top constraint. IC50 results in PANC-1, MIA-PaCa2, and AsPC-1 cells for (R)-H4CBD, (S)-H4CBD, H4CBDV racemic mixture, and bortezomib are shown in FIGS. 10-12 and Table 2
A general note: ATP-based viability assays read luminescence as a measure of living cells.

Data set [9] relates to AsPC-1. The data set is described as follows: CellTiterGlo cell viability, AsPC-1 cells. As to conditions: Homo sapiens, ASPC1, 72 h. The method, then:
as §4, §5

Data set [10] deals with PANC-1. The data set is described as follows: CellTiterGlo cell viability, PANC-1 cells. The note with it: Homo sapiens, 72 h. The method, then: as §4, §5
Data set [11] has as its system AsPC-1. The data set is described as follows: IC50 in cell lines (Table 4), AsPC-1. As to conditions: Homo sapiens, ASPC1. On the procedure:
as §1, §2

Data set [12] deals with HPAFII. In words: IC50 in cell lines (Table 4), HPAFII. The note with it: Homo sapiens, HPAF-II. The method, then:
as §1, §2

The mark [13] stands for this setting: A549, read-out: Percent viability of cells, Mean (%).
[14] abbreviates: A549, agent concentration 1.56 uM, read-out: Percent viability of cells, Mean (%).
Where [15] appears, read: A549, agent concentration 3.12 uM, read-out: Percent viability of cells, Mean (%).
The mark [16] stands for this setting: A549, agent concentration 6.25 uM, read-out: Percent viability of cells, Mean (%).
Where [17] appears, read: A549, agent concentration 12.5 uM, read-out: Percent viability of cells, Mean (%).
Where [18] appears, read: A549, agent concentration 25 uM, read-out: Percent viability of cells, Mean (%).
[19] abbreviates: A549, agent concentration 50 uM, read-out: Percent viability of cells, Mean (%).

Where two headings read alike, the source gives them in different places.

Sequence of hERG (Q12809 whole entry): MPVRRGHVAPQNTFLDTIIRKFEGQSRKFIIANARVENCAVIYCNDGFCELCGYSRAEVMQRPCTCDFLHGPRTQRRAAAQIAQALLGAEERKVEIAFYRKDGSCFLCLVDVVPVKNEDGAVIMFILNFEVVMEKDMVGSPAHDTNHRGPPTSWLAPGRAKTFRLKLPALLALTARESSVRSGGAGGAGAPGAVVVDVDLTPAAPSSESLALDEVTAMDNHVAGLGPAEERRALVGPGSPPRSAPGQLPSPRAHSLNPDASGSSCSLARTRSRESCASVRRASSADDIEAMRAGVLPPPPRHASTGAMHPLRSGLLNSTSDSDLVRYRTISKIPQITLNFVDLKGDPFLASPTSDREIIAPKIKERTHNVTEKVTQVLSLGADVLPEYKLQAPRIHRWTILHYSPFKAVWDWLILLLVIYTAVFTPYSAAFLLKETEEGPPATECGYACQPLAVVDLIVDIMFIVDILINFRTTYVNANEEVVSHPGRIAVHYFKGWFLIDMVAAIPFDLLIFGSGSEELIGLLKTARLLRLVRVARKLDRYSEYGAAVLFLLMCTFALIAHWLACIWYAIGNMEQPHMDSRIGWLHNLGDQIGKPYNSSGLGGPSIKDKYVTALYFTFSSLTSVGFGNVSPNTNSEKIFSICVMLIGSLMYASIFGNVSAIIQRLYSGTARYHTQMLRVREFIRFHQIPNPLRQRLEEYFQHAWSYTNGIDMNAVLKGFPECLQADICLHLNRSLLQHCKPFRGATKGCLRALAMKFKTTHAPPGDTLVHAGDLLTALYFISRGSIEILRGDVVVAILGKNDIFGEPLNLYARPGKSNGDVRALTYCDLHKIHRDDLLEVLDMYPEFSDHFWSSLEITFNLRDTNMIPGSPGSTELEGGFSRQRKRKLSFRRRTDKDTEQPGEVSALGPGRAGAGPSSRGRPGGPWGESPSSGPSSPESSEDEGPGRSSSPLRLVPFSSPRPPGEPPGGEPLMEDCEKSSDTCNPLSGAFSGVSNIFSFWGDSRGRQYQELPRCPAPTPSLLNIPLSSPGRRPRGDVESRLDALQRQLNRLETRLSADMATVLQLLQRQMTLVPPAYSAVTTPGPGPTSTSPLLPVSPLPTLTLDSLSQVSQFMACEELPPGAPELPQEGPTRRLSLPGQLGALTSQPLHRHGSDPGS

With `CCCc1cc(O)c2c(c1)OC(C)(C)C1CCC(C)CC21` (racemic) [CCL-103, HHCV], the results for the IC50 in data set [1] and in [2] were 0.00507 mM and 0.0197 mM, respectively.

For `CCCCCCCc1cc(O)c(C2CC(C)CCC2C(C)C)c(O)c1` (racemic) [CCL-105, H4CBDP], the half-maximal inhibitory concentration (IC50) in [1] came out at 0.00255 mM; in data set [2], 0.0061 mM.

Regarding `CCCCCc1cc(O)c2c(c1)OC(C)(C)C1CCC(C)CC21` (racemic) [CCL-113, hexahydrocannabinol], in data set [3] (Homo sapiens, Fibroblast), the IC50 was 14.4 µM. The compound also registered a human fibroblasts died in data set [3] (at 50 μM) of 74.8%. In addition, the “cytotoxicity in Ames test” value in data set [4] is “did not show cytotoxicity”. In data set [5], the “cytotoxicity in hERG assay” value was “did not show cytotoxicity”. For the same compound, in data set [6], the “cell viability, comparison in words (figure legends)” value (from here on “cell viability, comparison in words”) is recorded as “the only compound that presented higher cell viability from 25 μM”. In [6] (setting [13]), the viability at 1.56 µM turned out to be 92.5%, the viability at 3.12 µM stood at 92.9%, the viability at 6.25 µM was 95.6% and the viability at 12.5 µM came to 96.1%. Moreover, in data set [6] (setting [13]), the viability at 25 µM is 81.6% and the viability at 50 µM worked out at 22.1%. In data set [7], this compound registered a hepatocytes died of 8%.

`O=c1[nH]cc(F)c(=O)[nH]1` [5-fluorouracil, reference compound]: the “cell viability, comparison in words” value in [6] was “presented the best cell viability when compared to the other two drugs, gemcitabine and paclitaxel”.

Regarding `CC(C)C[C@H](NC(=O)[C@H](Cc1ccccc1)NC(=O)c1cnccn1)B(O)O` [Bortezomib, reference compound], the IC50 in data set [8] is 0.0149 µM; in data set [9], 0.0334 µM; in data set [10], 0.0134 µM.

As to `CCCCCc1cc(O)c2c(c1)OC(C)(C)C1CC[C@@H](C)CC21` (stereo partly drawn) [CCL-101, 9R-Hexahydrocannabinol], the IC50 in [11] was 0.0166 mM; in data set [1] it was 0.00908 mM; in [12], 0.00884 mM; in data set [2], 0.0127 mM.

Turning to `CCCCCc1cc(O)c2c(c1)OC(C)(C)C1CC[C@H](C)CC21` (stereo partly drawn) [CCL-102, 9S-Hexahydrocannabinol], the IC50 was 0.0115 mM in data set [11], 0.0172 mM in data set [1], 0.00702 mM in data set [12] and 0.0272 mM in data set [2].

`CCCCCc1cc(O)c(C2C[C@H](C)CCC2C(C)C)c(O)c1` (stereo partly drawn) [CCL-111, (R)-H4CBD]: the 50% inhibitory concentration (IC50) in [8] was found to be 3.24 µM; in data set [9], 4.85 µM; in [10], 5.29 µM.

In the case of `CCCCCc1cc(O)c(C2C[C@@H](C)CCC2C(C)C)c(O)c1` (stereo partly drawn) [CCL-112, (S)-H4CBD], the figures for the IC50 in [8], in data set [9] and in data set [10] were 4.77 µM, 6.17 µM and 8.02 µM, respectively.

Consider `CCCCCc1cc(O)c(C2C[C@H](C)CCC2C(C)C)c(O)c1` (some centres unmarked) [R- H4CBDV], for which the viability at 1.56 µM in data set [6] (setting [14]) worked out at 92.3%. Moreover, the viability at 3.12 µM in [6] (setting [15]) worked out at 86.7%. In addition, the viability at 6.25 µM in data set [6] (setting [16]) was 86%. Also, the viability at 12.5 µM in [6] (setting [17]) was 45%. Also, the viability at 25 µM in [6] (setting [18]) is 14%. Also, the viability at 50 µM in data set [6] (setting [19]) came to 4.18%.

Turning to `CCCCCc1cc(O)c(C2C[C@@H](C)CCC2C(C)C)c(O)c1` (some centres unmarked) [S- H4CBDV], the viability at 1.56 µM in data set [6] (setting [14]) was 94.2%. Also, the viability at 3.12 µM in data set [6] (setting [15]) came to 99.6%. Besides, the viability at 6.25 µM in data set [6] (setting [16]) stood at 94.1%. Besides, in data set [6] (setting [17]), the viability at 12.5 µM was determined as 81.3%. Further, the viability at 25 µM in data set [6] (setting [18]) is 13.8%. In [6] (setting [19]), the viability at 50 µM amounted to 1.53%.

In the case of `CC(=O)O[C@H]1C(=O)[C@@]2(C)[C@H]([C@H](OC(=O)c3ccccc3)[C@]3(O)C[C@H](OC(=O)[C@H](O)[C@@H](NC(=O)c4ccccc4)c4ccccc4)C(C)=C1C3(C)C)[C@]1(OC(C)=O)CO[C@@H]1C[C@@H]2O` [paclitaxel, reference compound], in data set [6], the “cell viability, comparison in words” value was “higher cytotoxicity at a lower concentration than 5-flurouracil”.
